Experimental data published in publication PMC4467461, “Small-molecule activation of SERCA2a SUMOylation for the treatment of heart failure” (Nature Communications, 2015).

System: TAC mice
Assay: Dobutamine contractile response in TAC and sham mice
Format: in vivo
Conditions: TAC versus sham mice, 3, 6, 10 ng/BW g
Description: TAC mice and sham control. n = 5 (TAC) and n = 3 (sham operated). LVIDd, LV internal diameter during diastole; LVIDs, LV internal diameter during systole; FS, fractional shortening; EF, ejection fraction. (e) SERCA2a protein levels were detected by Western blot analysis. 15 µg of tissue extracts was separated on 7.5% SDS-PAGE gels, transferred to nitrocellulose membrane and blotted with anti-SERCA2a antibody. Band intensity was quantified by Image J software. The amount of GAPDH was used as a normalization control. (f) Dobutamine was infused to test contractile response to β-agonist stimulation in TAC and sham operated animals.
LV pressure rise rate (+dP/dt max) was measured in response to different dose of dobutamine stimulation. Dose-dependent dobutamine response was blunted in TAC animals. n = 3 mice per each dose. Data are represented as mean ± SEM. * p < 0.05 versus baseline (Student’s t-test).

Q: `CC(CCc1ccc(O)cc1)NCCc1ccc(O)c(O)c1` (centres unmarked) [dobutamine] was tested. Which “contractile / chronotropic response (+dP/dt max) to dobutamine” value did it give?
A: Its value is “significantly abrogated”.

Q: What about the “contractile / chronotropic response (+dP/dt max) to dobutamine” value (listed as Dobutamine) of the same molecule?
A: Its value is “blunted”.
